Test results published in PubChem BioAssay AID2060893 (Molecular Pharmacology Branch, DTP, NCI, 2025).

Tested on: K86415-001-R-J1-PDC complex spheroids, viability
Assay: Anticancer human tumor K86415-001-R-J1-PDC patient-derived lung adenocarcinoma cell line growth inhibition [RAS]
Details: for IC50: curve of first compound; for viability, T/C: stronger effect = lower value
In short: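 Agents were tested in combination matrices in half-log decrements from a top concentration at or near clinical Cmax (10 microM if undetermined). Targets were multi-cell spheroids of tumour lines plus HUVEC and MSC stromal cells.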
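Note: spheroids exposed to agents for seven days before readout.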

In the case of CCc1c2c(nc3ccc(O)cc13)-c1cc3c(c(=O)n1C2)COC(=O)[C@]3(O)CC + C=CC(=O)N1CCN(c2nc(OCC3CCCN3C)nc3c(F)c(-c4nc(N)cc(C)c4C(F)(F)F)c(Cl)cc23)C(C)C1, the IC50 (second compound 0.00316 µM) is reported as less than 0.949 nM, the IC50 (second compound 0.01 µM) is reported as less than 0.949 nM and the IC50 (second compound 0.0316 µM) is reported as less than 0.949 nM. The IC50 (second compound 0.1 µM) was less than 0.949 nM, the IC50 (second compound 0.316 µM) was less than 0.949 nM and the IC50 (second compound 1 µM) was less than 0.949 nM. For the same molecule, the viability, T/C (second compound 0.00316 µM, first compound 0.000949 µM) was 19.9%, the viability, T/C (second compound 0.00316 µM, first compound 0.003 µM) was 18.5% and the viability, T/C (second compound 0.00316 µM, first compound 0.00949 µM) was 14.5%. The viability, T/C (second compound 0.00316 µM, first compound 0.03 µM) was 13.7%, the viability, T/C (second compound 0.00316 µM, first compound 0.0949 µM) was 8.97% and the viability, T/C (second compound 0.00316 µM, first compound 0.3 µM) was 4.41%. It also gave a viability, T/C (second compound 0.01 µM, first compound 0.000949 µM) of 11.6%, a viability, T/C (second compound 0.01 µM, first compound 0.003 µM) of 10.7% and a viability, T/C (second compound 0.01 µM, first compound 0.00949 µM) of 11.3%. The viability, T/C (second compound 0.01 µM, first compound 0.03 µM) was 9.32%, the viability, T/C (second compound 0.01 µM, first compound 0.0949 µM) was 8.86% and the viability, T/C (second compound 0.01 µM, first compound 0.3 µM) was 4.64%. The viability, T/C (second compound 0.0316 µM, first compound 0.000949 µM) was 10.1%, the viability, T/C (second compound 0.0316 µM, first compound 0.003 µM) was 9.35% and the viability, T/C (second compound 0.0316 µM, first compound 0.00949 µM) was 8.29%. The viability, T/C (second compound 0.0316 µM, first compound 0.03 µM) was 8.73%, the viability, T/C (second compound 0.0316 µM, first compound 0.0949 µM) was 8.33% and the viability, T/C (second compound 0.0316 µM, first compound 0.3 µM) was 4.32%. The viability, T/C (second compound 0.1 µM, first compound 0.000949 µM) was 8.25%, the viability, T/C (second compound 0.1 µM, first compound 0.003 µM) was 9.14% and the viability, T/C (second compound 0.1 µM, first compound 0.00949 µM) was 10.9%. It also gave a viability, T/C (second compound 0.1 µM, first compound 0.03 µM) of 7.98%, a viability, T/C (second compound 0.1 µM, first compound 0.0949 µM) of 6.67% and a viability, T/C (second compound 0.1 µM, first compound 0.3 µM) of 3.89%. It also gave a viability, T/C (second compound 0.316 µM, first compound 0.000949 µM) of 10%, a viability, T/C (second compound 0.316 µM, first compound 0.003 µM) of 9.61% and a viability, T/C (second compound 0.316 µM, first compound 0.00949 µM) of 9.94%. It also gave a viability, T/C (second compound 0.316 µM, first compound 0.03 µM) of 10.7%, a viability, T/C (second compound 0.316 µM, first compound 0.0949 µM) of 7.22% and a viability, T/C (second compound 0.316 µM, first compound 0.3 µM) of 4.36%. The viability, T/C (second compound 1 µM, first compound 0.000949 µM) was 9.61%, the viability, T/C (second compound 1 µM, first compound 0.003 µM) was 11% and the viability, T/C (second compound 1 µM, first compound 0.00949 µM) was 8.27%. For the same molecule, the viability, T/C (second compound 1 µM, first compound 0.03 µM) was 8.66%, the viability, T/C (second compound 1 µM, first compound 0.0949 µM) was 6.75% and the viability, T/C (second compound 1 µM, first compound 0.3 µM) was 2.88%.

CCc1c2c(nc3ccc(O)cc13)-c1cc3c(c(=O)n1C2)COC(=O)[C@]3(O)CC + CCn1c(-c2cccnc2C(C)OC)c2c3cc(ccc31)N1CCOC(CC(NC(=O)C(C(C)C)N(C)C(=O)C3(F)CCN(C(=O)C#CC(C)(C)N(C)C)CC3)C(=O)N3CCCC(N3)C(=O)OCC(C)(C)C2)C1 showed an IC50 (second compound 0.000949 µM) of less than 0.949 nM, an IC50 (second compound 0.003 µM) of less than 0.949 nM and an IC50 (second compound 0.00949 µM) of less than 0.949 nM. The IC50 (second compound 0.03 µM) was less than 0.949 nM, the IC50 (second compound 0.0949 µM) was less than 0.949 nM and the IC50 (second compound 0.3 µM) was less than 0.949 nM. The viability, T/C (second compound 0.000949 µM, first compound 0.000949 µM) was 36.7%, the viability, T/C (second compound 0.000949 µM, first compound 0.003 µM) was 25.1% and the viability, T/C (second compound 0.000949 µM, first compound 0.00949 µM) was 10.1%. The viability, T/C (second compound 0.000949 µM, first compound 0.03 µM) was 12.2%, the viability, T/C (second compound 0.000949 µM, first compound 0.0949 µM) was 9.29% and the viability, T/C (second compound 0.000949 µM, first compound 0.3 µM) was 3.47%. The viability, T/C (second compound 0.003 µM, first compound 0.000949 µM) was 11.9%, the viability, T/C (second compound 0.003 µM, first compound 0.003 µM) was 13.2% and the viability, T/C (second compound 0.003 µM, first compound 0.00949 µM) was 9.42%. It also gave a viability, T/C (second compound 0.003 µM, first compound 0.03 µM) of 10.6%, a viability, T/C (second compound 0.003 µM, first compound 0.0949 µM) of 6.9% and a viability, T/C (second compound 0.003 µM, first compound 0.3 µM) of 2.68%. It also gave a viability, T/C (second compound 0.00949 µM, first compound 0.000949 µM) of 11.8%, a viability, T/C (second compound 0.00949 µM, first compound 0.003 µM) of 10.5% and a viability, T/C (second compound 0.00949 µM, first compound 0.00949 µM) of 10.8%. For the same molecule, the viability, T/C (second compound 0.00949 µM, first compound 0.03 µM) was 9.69%, the viability, T/C (second compound 0.00949 µM, first compound 0.0949 µM) was 7.47% and the viability, T/C (second compound 0.00949 µM, first compound 0.3 µM) was 3.83%. It also gave a viability, T/C (second compound 0.03 µM, first compound 0.000949 µM) of 10.7%, a viability, T/C (second compound 0.03 µM, first compound 0.003 µM) of 11.6% and a viability, T/C (second compound 0.03 µM, first compound 0.00949 µM) of 8.61%. The viability, T/C (second compound 0.03 µM, first compound 0.03 µM) was 10.2%, the viability, T/C (second compound 0.03 µM, first compound 0.0949 µM) was 6.38% and the viability, T/C (second compound 0.03 µM, first compound 0.3 µM) was 2.86%. The viability, T/C (second compound 0.0949 µM, first compound 0.000949 µM) was 10.8%, the viability, T/C (second compound 0.0949 µM, first compound 0.003 µM) was 9.6% and the viability, T/C (second compound 0.0949 µM, first compound 0.00949 µM) was 10.9%. The viability, T/C (second compound 0.0949 µM, first compound 0.03 µM) was 9.82%, the viability, T/C (second compound 0.0949 µM, first compound 0.0949 µM) was 3.93% and the viability, T/C (second compound 0.0949 µM, first compound 0.3 µM) was 2.05%. It also gave a viability, T/C (second compound 0.3 µM, first compound 0.000949 µM) of 13.9%, a viability, T/C (second compound 0.3 µM, first compound 0.003 µM) of 9.91% and a viability, T/C (second compound 0.3 µM, first compound 0.00949 µM) of 7.1%. For the same molecule, the viability, T/C (second compound 0.3 µM, first compound 0.03 µM) was 6.45%, the viability, T/C (second compound 0.3 µM, first compound 0.0949 µM) was 3.04% and the viability, T/C (second compound 0.3 µM, first compound 0.3 µM) was 2.24%.
